# Reference: patent US20250326814A1, “MODIFIED OXYNTOMODULIN AND METHODS OF USE THEREOF” (OPKO BIOLOGICS LTD., priority 2024, published 2025)
# Non-standard residues stand in square brackets, D forms with d. Residues, ends and D or L forms follow the SMILES beside them. No end group written: not given here. *: point of attachment. X3 = O=C(O)CCCCCCCCCCCCCCCCCCC(=O)N[C@@H](CCC(=O)N[C@@H](CCC(=O)O)C(=O)NCCOCCOCC(=O)NCCOCCOCC(=O)NCCOCCOCC(=O)N[C@@H](CCCCNC(=O)C*)C(=O)NCC(=O)O)C(=O)O; X4 = O=C(O)CCCCCCCCCCCCCCCCC(=O)N[C@@H](CCC(=O)NCCOCCOCC(=O)NCCOCCOCC(=O)N[C@@H](CCCCNC(=O)C*)C(=O)NCC(=O)O)C(=O)O; Aib = CC(C)(N)C(=O)O
# What was measured:
# GCGR = GCGR (Homo sapiens, UniProt P47871); experiment: CBA potency assay, GCGR (Tables 10 and 11); assay type: cell-based
# Chain of GCGR (P47871 26-477): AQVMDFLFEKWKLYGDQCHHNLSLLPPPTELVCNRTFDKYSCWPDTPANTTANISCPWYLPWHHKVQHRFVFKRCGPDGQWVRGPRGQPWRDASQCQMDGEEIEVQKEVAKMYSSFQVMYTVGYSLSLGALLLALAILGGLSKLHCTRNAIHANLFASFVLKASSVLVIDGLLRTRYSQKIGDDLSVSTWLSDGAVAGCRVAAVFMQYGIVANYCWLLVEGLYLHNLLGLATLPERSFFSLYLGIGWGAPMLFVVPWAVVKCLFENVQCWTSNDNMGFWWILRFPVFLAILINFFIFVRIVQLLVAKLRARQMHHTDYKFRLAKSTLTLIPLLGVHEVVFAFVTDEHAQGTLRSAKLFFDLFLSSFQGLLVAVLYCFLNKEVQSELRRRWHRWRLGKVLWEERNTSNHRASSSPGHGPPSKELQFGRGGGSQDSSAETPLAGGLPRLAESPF
# Description: (§2) The impact of the longevity-enabling molecule (PEG Vs. FA-peptide/binder complex) on the peptide potency was studied.
# GLP1 = GLP1 (Homo sapiens, UniProt P43220); experiment: CBA potency assay, GLP1 (Tables 10 and 11); assay type: cell-based
# Chain of GLP1 (P43220 24-463): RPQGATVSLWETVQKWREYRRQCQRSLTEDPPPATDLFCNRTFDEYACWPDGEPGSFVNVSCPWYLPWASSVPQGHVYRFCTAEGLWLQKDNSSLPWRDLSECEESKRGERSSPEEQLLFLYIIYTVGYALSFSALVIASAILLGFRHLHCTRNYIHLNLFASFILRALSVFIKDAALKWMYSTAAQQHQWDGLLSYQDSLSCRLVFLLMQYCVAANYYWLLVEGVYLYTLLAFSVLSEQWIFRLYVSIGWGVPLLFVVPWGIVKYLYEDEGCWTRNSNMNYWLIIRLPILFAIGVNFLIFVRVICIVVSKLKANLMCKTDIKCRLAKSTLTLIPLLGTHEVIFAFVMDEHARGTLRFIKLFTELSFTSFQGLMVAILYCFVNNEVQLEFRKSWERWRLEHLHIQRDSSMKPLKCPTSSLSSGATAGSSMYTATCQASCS
# Description: as §2
# [1] = biological target: T1, glucagon-like peptide-1 (GLP1) receptor (Homo sapiens, UniProt P43220); experiment: GLP-1 activity EC50 of OXM analogs and GLP-1 therapeutics (Example 4, Table 9); assay type: cell-based; conditions: GLP-1 activity; Table 9; read-out: EC50
# T1 construct: expressed in transfected cells; host or cells: CHO-K1
# T1 sequence (P43220 24-463): as above
# Description: The potencies of the modified OXM analogs newly disclosed in the present application, the OXM Analog alone, and the PEGylated OXM analog were examined and compared by measuring the EC50 of both receptors, glucagon-like peptide-1 (GLP1) and glucagon (GCGR).
# DIO mice [2] = experiment: Body weight and food intake in DIO mice, 4 weeks daily treatment; assay type: in vivo; conditions: for food consumption / cumulative food intake (FIG. 17B, 18B): OPK-88604 vs semaglutide; for cumulative food intake on day 28, P compared to Vehicle (FIG. 15): 15 nmol/kg q.d. SC, 4 weeks
# Method: The animals were individually weighed and analyzed for lipid and cholesterol levels prior to treatment and following completion of the study. The levels of fasting glucose and insulin levels were analyzed, and oral glucose tolerance test was performed and compared between groups The levels of plasma triglycerides and cholesterol were evaluated at the end of study and compared to base levels prior to treatment. Levels of total cholesterol, triglycerides and glycogen were also examined at the end of study. Histology of liver was used to analyze for lipid droplets in the liver. All tests were conducted using routine methods known in the art.
# The mice used in the studies were the gubra diet-induced obese (DIO) mouse model. This mouse model is fed a high fat diet that results in rapid weight gain. The DIO mice were based on male C57BI/6J mice and ready for experiment after 18 weeks on a 60% high fat diet.
# To ensure accurate monitoring of weight changes over the course of the study, the animals were weighed daily with precision, prior to dosing at 7:00 AM. Body weight data was recorded in two formats: (1) Absolute measurements: The direct weight of the animal each day, and (2) Relative measurements: The weight expressed as a percentage relative to the body weight recorded on Day 1.
# (§1) Sixty C57BL/6JRj male mice were fed a high fat diet (60% HFD, D12492—Ssniff) for 20 weeks before treatment start. […] Body weight and food intake (24 h) were measured daily. In week 3, an OGTT study was performed. Baseline and preterminal fasting blood glucose and plasma insulin were assessed. Preterminal plasma TC and TG were assessed. Terminal endpoints included liver and heart weight, liver TC, TG, […] and lipid content (HE staining).
# DIO mice [3] = experiment: Liver H&E staining for lipid droplets / liver lipid in DIO mice; assay type: in vivo; conditions: 15 nmol/kg QD SC
# Method: In summary, glass slides with paraffin embedded sections were deparaffinated in xylene and rehydrated in series of graded ethanol.
# Slides treated with histochemical and immunohistochemical stains were scanned using a 20× objective in a ScanScope AT slide scanner (Aperio).
# Hematoxylin & Eosin (H&E) staining: Sections of FFPE tissue were incubated in Mayer's Hematoxylin (Dako), washed in tap water, stained in Eosin Y solution (Sigma-Aldrich), dehydrated in graded ethanol and cover slipped.
# as §1
# DIO mice [4] = experiment: Body composition (fat and lean tissue mass) in DIO mice; assay type: in vivo
# Method: The body composition of mice was assessed by an EchoMRI 3 in 1 Body composition analyzer (EchoMRI, US). Non-anaesthetized animals were placed in a plastic tube inside the MRI scanner for approximately 80 seconds. The body composition was reported as fat mass and fat free mass (lean mass).
# as §1
# DIO mice [5] = experiment: Plasma cholesterol and triglyceride in DIO mice; assay type: in vivo; conditions: 15 nmol/kg q.d.
# Method: For termination blood samples, during anesthesia with isoflurane, the abdominal cavity was opened, and cardiac blood was drawn with a syringe into a Microvette/Vacuette of appropriate dimensions with anticoagulant and mixed by inversion 5 times. Blood was placed at 4° C. until centrifuged at 3000 g for 10 minutes. The plasma supernatants were transferred to new tubes and immediately frozen on dry ice. The samples were stored at −70° C.
# Alanine transaminase (ALT), Aspartate transaminase (AST), Triglycerides (TG) and Total Cholesterol (TC): Blood samples were collected in heparinized tubes and plasma was separated and stored at −70° C. until analysis. Samples were measured using commercial kits (Roche Diagnostics), on the cobas c 501 autoanalyzer.
# as §1
# DIO mice [6] = experiment: Fasting blood glucose and plasma insulin in DIO mice; assay type: in vivo; conditions: 15 nmol/kg q.d.
# Method: For in vivo blood samples, tail-vein, tongue or cheek blood was collected in a Microvette tube of appropriate dimensions with anticoagulant and mixed by inversion 5 times. Blood was placed at 4° C. until centrifuged at 3000 g for 10 minutes. The plasma supernatants were transferred to new tubes and immediately frozen on dry ice. The samples were stored at −70° C.
# Insulin: Blood samples were collected in heparinized tubes and plasma was separated and stored at −70° C. until analysis. Insulin was measured using the commercial MSD platform (Meso Scale Diagnostics).
# as §1
compound,measurement,setting,value
CC[C@H](C)[C@H](NC(=O)[C@H](CC(N)=O)NC(=O)[C@H](CC(N)=O)NC(=O)[C@H](CCCNC(=N)N)NC(=O)[C@H](CC(N)=O)NC(=O)[C@H](CCCNC(=N)N)NC(=O)CNC(=O)C(C)(C)NC(=O)[C@H](CC(N)=O)NC(=O)[C@H](CC(C)C)NC(=O)[C@H](CC(C)C)NC(=O)[C@H](Cc1c[nH]c2ccccc12)NC(=O)[C@H](CCC(N)=O)NC(=O)[C@@H](NC(=O)[C@H](Cc1ccccc1)NC(=O)[C@H](CCC(=O)O)NC(=O)[C@H](CCC(N)=O)NC(=O)[C@H](C)NC(=O)[C@H](CCCCN)NC(=O)[C@H](CCCCN)NC(=O)[C@H](CO)NC(=O)[C@H](CC(=O)O)NC(=O)[C@H](CC(C)C)NC(=O)[C@H](Cc1ccc(O)cc1)NC(=O)[C@H](CCCCN)NC(=O)[C@H](CO)NC(=O)[C@H](Cc1ccc(O)cc1)NC(=O)[C@H](CC(=O)O)NC(=O)[C@H](CO)NC(=O)[C@@H](NC(=O)[C@H](Cc1ccccc1)NC(=O)[C@@H](NC(=O)CNC(=O)[C@H](CCC(N)=O)NC(=O)C(C)(C)NC(=O)[C@@H](N)Cc1c[nH]cn1)[C@@H](C)O)[C@@H](C)O)C(C)C)C(=O)N[C@@H](C)C(=O)N[C@@H](CS)C(N)=O [MOD-604 KPI] (HELM PEPTIDE1{H.[Aib].Q.G.T.F.T.S.D.Y.S.K.Y.L.D.S.K.K.A.Q.E.F.V.Q.W.L.L.N.[Aib].G.R.N.R.N.N.I.A.C.[am]}$$$$V2.0),% EC50 compare to KPI (GCGR),GCGR; Table 10,72%
same,Activity fold reduction compared to OPK-88003 KPI (GCGR),GCGR; Table 10,1.4 fold
same,EC50,GCGR; Table 10,0.83 nM
same,EC50 ratio (GCGR\GLP-1R),GCGR; Table 10,2.9
same,% EC50 compare to KPI (GLP1),GLP1; Table 10,45%
same,Activity fold reduction compared to OPK-88003 KPI (GLP1),GLP1; Table 10,2.2 fold
same,EC50,GLP1; Table 10,0.282 nM
same,EC50,[1],0.13 nM
CC[C@H](C)[C@H](NC(=O)[C@H](CC(N)=O)NC(=O)[C@H](CC(N)=O)NC(=O)[C@H](CCCNC(=N)N)NC(=O)[C@H](CC(N)=O)NC(=O)[C@H](CCCNC(=N)N)NC(=O)CNC(=O)C(C)(C)NC(=O)[C@H](CC(N)=O)NC(=O)[C@H](CC(C)C)NC(=O)[C@H](CC(C)C)NC(=O)[C@H](Cc1c[nH]c2ccccc12)NC(=O)[C@H](CCC(N)=O)NC(=O)[C@@H](NC(=O)[C@H](Cc1ccccc1)NC(=O)[C@H](CCC(=O)O)NC(=O)[C@H](CCC(N)=O)NC(=O)[C@H](C)NC(=O)[C@H](CCCCN)NC(=O)[C@H](CCCCN)NC(=O)[C@H](CO)NC(=O)[C@H](CC(=O)O)NC(=O)[C@H](CC(C)C)NC(=O)[C@H](Cc1ccc(O)cc1)NC(=O)[C@H](CCCCN)NC(=O)[C@H](CO)NC(=O)[C@H](Cc1ccc(O)cc1)NC(=O)[C@H](CC(=O)O)NC(=O)[C@H](CO)NC(=O)[C@@H](NC(=O)[C@H](Cc1ccccc1)NC(=O)[C@@H](NC(=O)CNC(=O)[C@H](CCC(N)=O)NC(=O)C(C)(C)NC(=O)[C@@H](N)Cc1c[nH]cn1)[C@@H](C)O)[C@@H](C)O)C(C)C)C(=O)N[C@@H](C)C(=O)N[C@@H](CSCC(=O)NCCCC[C@H](NC(=O)COCCOCCNC(=O)COCCOCCNC(=O)CC[C@H](NC(=O)CCCCCCCCCCCCCCCCC(=O)O)C(=O)O)C(=O)NCC(=O)O)C(N)=O [Variant 2] (H-H[Aib]QGTFTSDYSKYLDSKKAQEFVQWLLN[Aib]GRNRNNIAC(X4)-NH2),EC50,[1],0.1 nM
CC[C@H](C)[C@H](NC(=O)[C@H](CC(N)=O)NC(=O)[C@H](CC(N)=O)NC(=O)[C@H](CCCNC(=N)N)NC(=O)[C@H](CC(N)=O)NC(=O)[C@H](CCCNC(=N)N)NC(=O)CNC(=O)C(C)(C)NC(=O)[C@H](CC(N)=O)NC(=O)[C@H](CC(C)C)NC(=O)[C@H](CC(C)C)NC(=O)[C@H](Cc1c[nH]c2ccccc12)NC(=O)[C@H](CCC(N)=O)NC(=O)[C@@H](NC(=O)[C@H](Cc1ccccc1)NC(=O)[C@H](CCC(=O)O)NC(=O)[C@H](CCC(N)=O)NC(=O)[C@H](C)NC(=O)[C@H](CCCCN)NC(=O)[C@H](CCCCN)NC(=O)[C@H](CO)NC(=O)[C@H](CC(=O)O)NC(=O)[C@H](CC(C)C)NC(=O)[C@H](Cc1ccc(O)cc1)NC(=O)[C@H](CCCCN)NC(=O)[C@H](CO)NC(=O)[C@H](Cc1ccc(O)cc1)NC(=O)[C@H](CC(=O)O)NC(=O)[C@H](CO)NC(=O)[C@@H](NC(=O)[C@H](Cc1ccccc1)NC(=O)[C@@H](NC(=O)CNC(=O)[C@H](CCC(N)=O)NC(=O)C(C)(C)NC(=O)[C@@H](N)Cc1c[nH]cn1)[C@@H](C)O)[C@@H](C)O)C(C)C)C(=O)N[C@@H](C)C(=O)N[C@@H](CSCC(=O)NCCCC[C@H](NC(=O)COCCOCCNC(=O)COCCOCCNC(=O)COCCOCCNC(=O)[C@H](CCC(=O)O)NC(=O)CC[C@H](NC(=O)CCCCCCCCCCCCCCCCCCC(=O)O)C(=O)O)C(=O)NCC(=O)O)C(N)=O [Variant 3] (H-H[Aib]QGTFTSDYSKYLDSKKAQEFVQWLLN[Aib]GRNRNNIAC(X3)-NH2),EC50,[1],0.15 nM
"OPK-88003 FA-conjugate: either the modified OXM of Formula XXII or the modified OXM of Formula XXIII (H[Aib]QGTFTSDYSKYLDSKKAQEFVQWLLN[Aib]GRNRNNIACC; not fully specified (C-terminus); also: fatty acid binder on Cys38 or Cys39, isomer not given here)",EC50 ratio (GCGR\GLP-1R),GCGR; Table 10,7.6
same,EC50 ratio (GCGR\GLP-1R),"GCGR; Table 11, + HSA",23.3
same,EC50 ratio (GCGR\GLP-1R),"GCGR; Table 11, without HSA",15.2
same,Activity fold reduction compared to OPK-88003 KPI (GLP1),"GLP1; Table 11, without HSA",non
Semaglutide,"absolute body weight at day 28, P compared to Vehicle (FIG. 16A)",DIO mice [2]; 15 nmol/kg QD SC,< 0.01
same,"food consumption / cumulative food intake (FIG. 17B, 18B)","DIO mice [2]; 15 nmol/kg daily, 28 days",reduced food consumption significantly more than OPK-88604 treatment
same,"weight loss from baseline (FIG. 17A, 18A)","DIO mice [2]; 15 nmol/kg daily, 28 days, OPK-88604 vs semaglutide vs placebo",similar
same,"food consumption / cumulative food intake (FIG. 17B, 18B)","DIO mice [2]; 15 nmol/kg daily, 28 days, listed as semaglutide",significantly decreased
same,"cumulative food intake on day 28, P compared to Vehicle (FIG. 15)",DIO mice [2],< 0.05
same,"relative liver lipid / total liver lipid, P compared to Vehicle (FIG. 31A, 31B)",DIO mice [3],< 0.05
same,"change in lean tissue mass from baseline, P compared to Vehicle (FIG. 23B)",DIO mice [4]; 15 nmol/kg QD SC,< 0.05
same,"relative fat tissue mass / relative lean tissue mass at week 4, P compared to Vehicle (FIG. 22A, 22B)",DIO mice [4]; 15 nmol/kg QD SC,< 0.05
same,"relative lean body mass and fat mass change from baseline on day 28 (FIG. 24A, 24B)","DIO mice [4]; 15 nmol/kg daily, 28 days, OPK-88604 vs semaglutide",statistically similar
Tirzepatide [reference compound],"plasma triglyceride at termination, P compared to Vehicle (FIG. 32B)",DIO mice [5],< 0.01
same,"glucose tolerance plasma insulin at week 1, P compared to Vehicle (FIG. 36A)",DIO mice [6],< 0.01
same,"glucose tolerance plasma insulin at week 4, P compared to Vehicle (FIG. 36B)",DIO mice [6],< 0.01
same,"cumulative food intake on day 28, P compared to Vehicle (FIG. 15)",DIO mice [2],< 0.001
same,"relative liver lipid / total liver lipid, P compared to Vehicle (FIG. 31A, 31B)",DIO mice [3],< 0.01
same,"absolute fat tissue mass at week 4, P compared to Vehicle (FIG. 21A)",DIO mice [4]; 15 nmol/kg QD SC,< 0.001
same,"relative fat tissue mass / relative lean tissue mass at week 4, P compared to Vehicle (FIG. 22A, 22B)",DIO mice [4]; 15 nmol/kg QD SC,< 0.001
